Assay results published in patent publication US8986994B2, “Substituted pyridines and pyrimidines” (Technische Universitaet Wien, priority 2009, dated 2015).
Read-outs that look alike come from different tables or passages of the source.

Experiments:
Nkx2.5 (P19 cells) = assay: Nkx2.5 luciferase reporter assay in P19 cells; assay type: cell-based; conditions: Mus musculus, read-out: Nkx2.5 activity
Nkx2.5 (C2C12 cells) = assay: Nkx2.5 luciferase reporter assay in C2C12 cells; assay type: cell-based; conditions: Mus musculus, read-out: Nkx2.5 activity
ANF (C2C12 cells) = assay: ANF promoter luciferase reporter assay in C2C12 cells; assay type: cell-based, mouse; conditions: for fold induction at 1 µM: Mus musculus, read-out: ANF activity; for luciferase signal in all three reporter assays: ANF, TOPflash and Nkx2.5 reporter assays together
TOPflash (C2C12 cells) = assay: TOPflash luciferase reporter assay in C2C12 cells; assay type: cell-based; conditions: Mus musculus, read-out: TOPflash activity
TOPflash (P19 cells) = assay: TOPflash luciferase reporter assay in P19 cells; assay type: cell-based; conditions: Mus musculus, read-out: TOPflash activity
[1] = test system: Ca currents in C2C12 cells; assay: Electrophysiological testing, whole cell patch clamp: Ca currents; assay type: cell-based, mouse
[2] = test system: Na currents in C2C12 cells; assay type: cell-based, mouse; conditions: 1 μM for 8 days
ANF (P19 cells) = assay: ANF promoter luciferase reporter assay in P19 cells; assay type: cell-based, mouse; conditions: for fold induction at 1 µM: Mus musculus, read-out: ANF activity
[3] = test system: ANF (human primary skeletal myoblasts); assay: ANF reporter assay in human primary skeletal myoblasts; assay type: cell-based; conditions: 1 μM for 6 days, two experiments
[4] = 192 h, P19 cells, 1 μM for 8 days, luciferase signal vs control (untreated cells)
[5] = 192 h, C2C12 cells, 1 μM for 8 days, luciferase signal vs control (untreated cells)

Compound | fold induction at 1 µM (Nkx2.5 (P19 cells); [4]) | fold induction at 1 µM (Nkx2.5 (C2C12 cells); [5]) | fold induction at 1 µM (ANF (C2C12 cells); [5]) | fold induction at 1 µM (TOPflash (C2C12 cells); [5]) | fold induction at 1 µM (TOPflash (P19 cells); [4]) | activation kinetics of Ca currents [1] | tetrodotoxin (TTX)-resistance of the Na currents [2] | fold induction at 1 µM (ANF (P19 cells); [4]) | melting point | fold induction at 1 µM (Nkx2.5 (P19 cells); P19, 192 h) | fold induction at 1 µM (Nkx2.5 (C2C12 cells); C2C12, 192 h) | luciferase signal in all three reporter assays (ANF (C2C12 cells); C2C12 cells, 1 μM for 8 days) | fold induction at 1 µM (ANF (C2C12 cells); C2C12, 192 h) | fold induction at 1 µM (TOPflash (C2C12 cells); C2C12, 192 h) | fold induction at 1 µM (TOPflash (P19 cells); P19, 192 h) | fold induction at 1 µM (ANF (P19 cells); P19, 192 h) | luciferase signal in the ANF reporter assay [3] | luciferase signal in all three reporter assays (ANF (P19 cells); P19 cells, 1 μM for 8 days, ANF, TOPflash and Nkx2.5 reporter assays together)
COc1ccc(Nc2cc(NCCO)ncn2)cc1 [example 1, 2-(6-(4-Methoxyphenylamino)pyrimidine-4-ylamino)ethan-1-ol] | < 1.3 | < 1.3 | > 2 | < 1.3 | < 1.3 | significantly speeds | moderately increase | 1.3 to 2 |  |  |  |  |  |  |  |  |  | 
COc1ccc(Nc2cc(NCCCO)ncn2)cc1 [example 2, 3-(6-(4-Methoxyphenylamino)pyrimidine-4-ylamino)propan-1-ol] | < 1.3 | 1.3 to 2 | < 1.3 | < 1.3 | > 2 |  | moderately increase | 1.3 to 2 | 151 to 152 °C |  |  |  |  |  |  |  |  | 
OCCNc1cc(Nc2ccc(Oc3ccccc3)cc2)ncn1 [example 8, 2-(6-(4-Phenoxyphenylamino)pyrimidin-4-ylamino)ethan-1-ol] | < 1.3 | 1.3 to 2 | < 1.3 | < 1.3 | 1.3 to 2 |  |  | < 1.3 | 154 to 156 °C |  |  |  |  |  |  |  |  | 
CCCNc1cc(Nc2ccc(OC)cc2)ncn1 [example 9, N^4-(4-Methoxyphenyl)-N^6-propylpyrimidine-4,6-diamine] | > 2 | 1.3 to 2 | < 1.3 | 1.3 to 2 | < 1.3 |  |  | < 1.3 | 194 to 196 °C |  |  |  |  |  |  |  |  | 
CCNc1cc(Nc2ccc(OC)cc2)ncn1 [example 10, N^4-Ethyl-N^6-(4-methoxyphenyl)pyrimidine-4,6-diamine] |  |  |  |  |  |  |  |  | 190 to 193 °C | < 1.3 | 1.3 to 2 | increase in the luciferase signal in all three reporter assays | 1.3 to 2 | 1.3 to 2 | < 1.3 | 1.3 to 2 |  | 
CNc1cc(Nc2ccc(OC)cc2)ncn1 [example 11, N^4-(4-Methoxyphenyl)-N^6-methylpyrimidine-4,6-diamine] | < 1.3 | 1.3 to 2 | < 1.3 | 1.3 to 2 | > 2 |  |  | < 1.3 | 174 to 182 °C |  |  |  |  |  |  |  |  | 
COc1ccc(Nc2ccnc(NCCO)c2)cc1 [example 40, 2-(4-(4-Methoxyphenylamino)pyridin-2-ylamino)ethan-1-ol] | < 1.3 | < 1.3 | < 1.3 | < 1.3 | < 1.3 |  |  | < 1.3 | 164 to 165 °C |  |  |  |  |  |  |  |  | 
COc1ccc(Nc2cccc(NCCO)n2)cc1 [example 42, 2-(6-(4-Methoxyphenylamino)pyridin-2-ylamino)ethan-1-ol] | 1.3 to 2 | 1.3 to 2 | 1.3 to 2 | 1.3 to 2 | > 2 |  |  | 1.3 to 2 |  |  |  | increase in the luciferase signal in all three reporter assays |  |  |  |  | generated an increase in the luciferase signal | increase in the luciferase signal in all three reporter assays
